Assay [1] has as its target T1, human neurotensin receptor type 1 (hNTR-1) (Homo sapiens, UniProt P30989).
T1 construct: purchased PerkinElmer; host or cells: CHO cells stably expressing human NTR-1 (membrane homogenates)
Put plainly: Competition binding assay with [3H]-neurotensin on human NTR-1 membranes (CHO cells). The conditions noted are these: read-out: NTR-1 binding affinity Ki, Human NTR-1.

The target in assay [2] is T2, rat neurotensin receptor type 1 (rNTR-1) (Rattus norvegicus, UniProt P20789).
T2 construct: host or cells: HEK293 cells (membrane homogenates)
T2 sequence (P20789 whole entry): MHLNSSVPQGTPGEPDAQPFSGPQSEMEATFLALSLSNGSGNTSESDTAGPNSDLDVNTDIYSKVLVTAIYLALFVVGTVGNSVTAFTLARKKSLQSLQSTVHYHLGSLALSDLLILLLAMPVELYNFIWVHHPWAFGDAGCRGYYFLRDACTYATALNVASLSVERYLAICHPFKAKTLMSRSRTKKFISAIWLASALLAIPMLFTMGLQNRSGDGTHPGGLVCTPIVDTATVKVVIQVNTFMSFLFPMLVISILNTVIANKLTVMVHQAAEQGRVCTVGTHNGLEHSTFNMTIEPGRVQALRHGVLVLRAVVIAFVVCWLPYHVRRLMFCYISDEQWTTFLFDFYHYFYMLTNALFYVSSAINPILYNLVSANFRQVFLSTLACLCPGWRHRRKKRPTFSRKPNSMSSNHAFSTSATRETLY
Put plainly: Competition binding assay with [3H]-neurotensin on rat NTR-1 membranes (HEK293 cells). The conditions noted are these: read-out: NTR-1 binding affinity Ki, Rat NTR-1.

Assay [3] deals with Sprague-Dawley rats. Put plainly: Hypothermic response after i.v. bolus in Sprague-Dawley rats. Format: in vivo, rat. As to conditions: 5 mg/kg eq. NT i.v. bolus.
Assay [4] concerns FVB/N mice with KA-induced status epilepticus. Put plainly: Kainic acid-induced status epilepticus model (body temperature, seizures, neurodegeneration, neuroinflammation, mossy fiber sprouting). It counts as in vivo, mouse. The conditions noted are these: administered 30 min after SE onset. From the text:
In the present case, excitotoxicity was induced by subcutaneous (s.c.) injection of kainic acid (KA), a pro-convulsant agent known to induce a status epilepticus (SE) with excitotoxicity, neuroinflammation, and severe neuronal damage in the hippocampus that can be observed 3 to 7 days after KA administration, and with aberrant axonal sprouting of the dentate gyrus mossy fibers that can be observed at 7-8 weeks after KA administration. We tested the effect of compound XIV on i) epileptic activity (persistence of recurrent seizures), ii) neurodegeneration, neuroinflammation and the resulting brain tissue damage and iii) aberrant axonal sprouting of the dentate gyrus mossy fibers.
FVB/N adult male mice were injected with a single dose of KA (40-45 mg/kg s.c.) to generate mice with spontaneous recurrent seizures as a hallmark of SE. A negative control group of mice were administered saline 0.9% instead of KA and no further treatment (“SHAM”, n=5). Thirty minutes after the onset of SE, mice received either an intravenous (tail vein) bolus injection of compound XIV at the dose of 4 mg/kg eq. NT (treatment group “SE+HT”, n=5) or saline 0.9% (group “SE”, n=5), or a high dose of diazepam (DZP) at 15 mg/kg), a potent anti-convulsive and anti-epileptic drug (positive control group “SE+DZP”). Body temperature was monitored before KA injection and then every 15 min during 6 hours thereafter, using a rectal probe. During this period, mice were assessed for the occurrence and severity of motor seizures. One week later, animals were sacrificed for histological assessment of neuronal cell death on coronal sections, the hippocampal formation being the main structure in the brain showing tissue damage in this model of excitotoxicity. Another group of animals with the same treatments was sacrificed 8 weeks for histological assessment of aberrant axonal sprouting of the dentate gyrus mossy fibers.
Administration of KA (40-45 mg/kg; s.c.) caused characteristic sequential behavioral changes. Immediately after being injected, all animals developed immobility (stage 1). Within 30 minutes after KA injection, automatisms with head nodding, forelimb clonus and circling behavior (stages 2-3) were observed. Then most animals progressed to intermittent (stage 4) followed by continuous (stage 5) rearing with forelimb clonus and falling behavior. […] Only animals attaining at least Racine stage 5 seizures were included in the study. The SE occurred around 2 hours after KA injection, was characterized by stage 5-6 seizures and often associated with hyperthermia (FIG. 13A). Compound XIV administered 30 min after SE onset (SE30) invariably led to transient hypothermia (FIG. 13A), which persisted at least 2 hrs. Mean decreases in body temperature (BT) of −2.5° C. and −3.6° C. were respectively recorded for SE30+ compound XIV animals as compared to SE animals (F=52.34; ***P<0.001). […] SE30+ compound XIV animals presented an average of stage 2 seizures or fewer during the rest of experiment. A subset of animals was administered i.p. a high dose of diazepam (DZP). […] Thus, administration of compound XIV at the dose of 4 mg/kg eq. […] This effect correlated with a −3 to −6° C. decrease in body temperature during ˜2.5 hours.
Using the anti-NeuN antibody and Fluoro-jade C that respectively label a neuronspecific nuclear protein and neuronal death, we observed a broad loss of CA1 and CA3 pyramidal cells as well as some dentate hilar neurons in the hippocampus of control SE animals (FIG. 14A, panel B), as compared to SHAM animals (FIG. 14A, panel A).
SE-induced gliosis involved microglia and astroglial cell types. We used GFAP and Iba1 immunolabeling to estimate the effect of compound XIV on neuroinflammation. In SHAM animals, a basal labeling for GFAP and Iba1 was detected in the HF (FIG. 14A, panel D). In SE animals, a very strong activation of glial cells occurred in all hippocampal layers (FIG. 14, panels E, H). […]

The text below walks through data of patent US9821072B2, “Activated neurotensin molecules and the uses thereof” (priority 2014, dated 2017).

Bridge positions count the residues as written; N and C are the ends. Square brackets hold non-standard residues; d marks the D form. Peptide text beside a SMILES is read from it. * marks the point of attachment. Pen = CC(C)(S)[C@H](N)C(=O)O; Tle = CC(C)(C)[C@H](N)C(=O)O; Pip = O=C(O)[C@@H]1CCCCN1; Propionyl = CCC(=O)*; Sar = CNCC(=O)O

T1 sequence (P30989 whole entry): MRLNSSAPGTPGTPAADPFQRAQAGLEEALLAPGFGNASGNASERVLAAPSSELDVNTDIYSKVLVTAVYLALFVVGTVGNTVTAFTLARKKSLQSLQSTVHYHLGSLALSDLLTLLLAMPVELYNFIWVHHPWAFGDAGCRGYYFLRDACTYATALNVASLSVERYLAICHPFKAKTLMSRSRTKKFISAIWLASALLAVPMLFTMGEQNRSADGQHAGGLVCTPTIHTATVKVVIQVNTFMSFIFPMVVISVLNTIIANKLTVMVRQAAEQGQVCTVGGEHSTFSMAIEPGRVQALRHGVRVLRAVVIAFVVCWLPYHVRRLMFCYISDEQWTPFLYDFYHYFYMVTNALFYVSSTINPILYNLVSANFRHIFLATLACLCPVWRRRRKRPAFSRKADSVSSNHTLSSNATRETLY

One may read the Ki as the equilibrium dissociation constant of an inhibitor or competing ligand from its target. For the molecule `CCC(=O)N[C@@H]1CSSC(C)(C)[C@@H](C(=O)N[C@@H](CCCCN)C(=O)N[C@@H](CCCNC(=N)N)C(=O)N2CCC[C@H]2C(=O)N[C@@H](Cc2ccc(O)cc2)C(=O)N[C@H](C(=O)N[C@@H](CC(C)C)C(=O)O)C(C)(C)C)NC(=O)CN(C)C(=O)[C@H](CCCNC(=N)N)NC(=O)[C@H](CC(C)C)NC(=O)[C@H](CCCNC(=N)N)NC(=O)[C@@H]2CCCCN2C(=O)[C@H](CCSC)NC1=O` [XX, Pr-cMPipRLRSarPen-KRPYTIeL-OH] (Propionyl-[dC]M[Pip]RLR[Sar][Pen]KRPY[Tle]L-OH; disulfide 1-8), the results for the Ki in assay [1] and in assay [2] were 0.11 ± 0.03 nM and 0.08 ± 0.06 nM, respectively. Moreover, the “Maximal decrease in body temperature” value in assay [3] (60 to 90 min post-injection) was “around −2 °C”.
Consider `CCC(=O)N[C@@H]1CSSC[C@@H](C(=O)N[C@@H](CCCNC(=N)N)C(=O)N[C@@H](CCCNC(=N)N)C(=O)N2CCC[C@H]2C(=O)N[C@@H](Cc2ccc(O)cc2)C(=O)N[C@H](C(=O)N[C@@H](CC(C)C)C(=O)O)C(C)(C)C)NC(=O)CN(C)C(=O)[C@H](CCCNC(=N)N)NC(=O)[C@H](CC(C)C)NC(=O)[C@H](CCCNC(=N)N)NC(=O)[C@@H]2CCCCN2C(=O)[C@H](CCSC)NC1=O` [Compound XV, Pr-cMPipRLRSarC-RRPYTIeL-OH] (Propionyl-[dC]M[Pip]RLR[Sar]CRRPY[Tle]L-OH; disulfide 1-8), for which the Ki is 0.4 ± 0.2 nM in assay [1] and 0.06 ± 0.02 nM in assay [2]. The “Maximal decrease in body temperature” value in assay [3] (60 to 90 min post-injection) is “around −2 °C”.
Consider `CCC(=O)N[C@@H]1CSSC[C@@H](C(=O)N[C@@H](CCCNC(=N)N)C(=O)N[C@@H](CCCCN)C(=O)N2CCC[C@H]2C(=O)N[C@@H](Cc2ccc(O)cc2)C(=O)N[C@H](C(=O)N[C@@H](CC(C)C)C(=O)O)C(C)(C)C)NC(=O)CN(C)C(=O)[C@H](CCCNC(=N)N)NC(=O)[C@H](CC(C)C)NC(=O)[C@H](CCCNC(=N)N)NC(=O)[C@@H]2CCCCN2C(=O)[C@H](CCSC)NC1=O` [XVII, Pr-cMPipRLRSarC-RKPYTIeL-OH] (Propionyl-[dC]M[Pip]RLR[Sar]CRKPY[Tle]L-OH; disulfide 1-8), for which the figures for the Ki in assay [1] and in assay [2] were 0.47 ± 0.19 nM and 0.19 ± 0.07 nM, respectively. The “Maximal decrease in body temperature” value in assay [3] (60 to 90 min post-injection) was “around −2 °C”.
On to `CCC(=O)N[C@@H]1CSSC[C@@H](C(=O)N[C@@H](CCCCN)C(=O)N[C@@H](CCCNC(=N)N)C(=O)N2CCC[C@H]2C(=O)N[C@@H](Cc2c[nH]c3ccccc23)C(=O)N[C@H](C(=O)N[C@@H](CC(C)C)C(=O)O)C(C)(C)C)NC(=O)CN(C)C(=O)[C@H](CCCNC(=N)N)NC(=O)[C@H](CC(C)C)NC(=O)[C@H](CCCNC(=N)N)NC(=O)[C@@H]2CCCCN2C(=O)[C@H](CCSC)NC1=O` [XIX, Pr-cMPipRLRSarC-KRPWTIeL-OH] (Propionyl-[dC]M[Pip]RLR[Sar]CKRPW[Tle]L-OH; disulfide 1-8), for which the Ki in assay [1] was 6.34 ± 2.25 nM; in assay [2], 0.03 ± 0.02 nM. Further, in assay [3] (90 min post-injection), the “Maximal decrease in body temperature” value is “around −2.8 °C”.
As for `CCC(=O)N[C@@H]1CSSC[C@@H](C(=O)N[C@@H](CCCNC(=N)N)C(=O)N[C@@H](CCCNC(=N)N)C(=O)N2CCC[C@H]2C(=O)N[C@@H](Cc2c[nH]c3ccccc23)C(=O)N[C@H](C(=O)N[C@@H](CC(C)C)C(=O)O)C(C)(C)C)NC(=O)CN(C)C(=O)[C@H](CCCNC(=N)N)NC(=O)[C@H](CC(C)C)NC(=O)[C@H](CCCNC(=N)N)NC(=O)[C@@H]2CCCCN2C(=O)[C@H](CCSC)NC1=O` [XVIII, Pr-cMPipRLRSarC-RRPWTIeL-OH] (Propionyl-[dC]M[Pip]RLR[Sar]CRRPW[Tle]L-OH; disulfide 1-8), the Ki came to 2.98 ± 1.08 nM in assay [1] and 0.02 ± 0.01 nM in assay [2]. Moreover, the “Maximal decrease in body temperature” value in assay [3] (90 min post-injection) is “around −2.8 °C”.
As for `CN1C(=O)CN=C(c2ccccc2)c2cc(Cl)ccc21` [DZP, diazepam, reference compound], in assay [4], the “effect on body temperature (BT) compared with SE animals” value was “hypothermia was also observed”; the “glial inflammatory response in the hippocampus (GFAP, Iba1) compared with SE animals” value is “significantly decreased”; the “seizure stage (Racine) during the rest of the experiment” value was 1-2 stage. Also, the “number of mossy fiber terminals innervating the IML (ZnT3) compared with SE animals” value in assay [4] (8 weeks after SE) was “considerably reduced”. Besides, in assay [4] (one week later), the “neurodegeneration in the hippocampus (NeuN, Fluoro-jade C) compared with SE animals” value is “significantly decreased”.
Take `CCC(=O)N[C@@H]1CSSC[C@@H](C(=O)N[C@@H](CCCCN)C(=O)N[C@@H](CCCNC(=N)N)C(=O)N2CCC[C@H]2C(=O)N[C@@H](Cc2ccc(O)cc2)C(=O)N[C@H](C(=O)N[C@@H](CC(C)C)C(=O)O)C(C)(C)C)NC(=O)CN(C)C(=O)[C@H](CCCNC(=N)N)NC(=O)[C@H](CC(C)C)NC(=O)[C@H](CCCNC(=N)N)NC(=O)[C@@H]2CCCCN2C(=O)[C@H](CCSC)NC1=O` [XVI, Pr-cMPipRLRSarC-KRPYTIeL-OH] (Propionyl-[dC]M[Pip]RLR[Sar]CKRPY[Tle]L-OH; disulfide 1-8): the Ki in assay [1] was 0.15 ± 0.06 nM. Besides, the “Maximal decrease in body temperature” value in assay [3] (60 to 90 min post-injection) was “around −2 °C”.
For `CCC(=O)N[C@@H]1CSSC[C@@H](C(=O)N[C@@H](CCCNC(=N)N)C(=O)N[C@@H](CCCNC(=N)N)C(=O)N2CCC[C@H]2C(=O)N[C@@H](Cc2ccc(O)cc2)C(=O)N[C@H](C(=O)N[C@@H](CC(C)C)C(=O)O)[C@@H](C)CC)NC(=O)CN(C)C(=O)[C@H](CCCNC(=N)N)NC(=O)[C@H](CC(C)C)NC(=O)[C@H](CCCNC(=N)N)NC(=O)[C@@H]2CCCCN2C(=O)[C@H](CCSC)NC1=O` [Compound IX, Pr-cMPipRLRSarC-RRPYIL-OH], the “Maximal decrease in body temperature” value in assay [3] (30 min post-injection) was −1.2 °C.
